Measurements as given in patent US20220305000A1 (Cellworks Group Inc., priority 2021, published 2022).
Where two headings read alike, the source gives them in different places.

Key:
[1] = system: MPN Cell Lines (JAK2 and non JAK2 populations); assay: Efficacy of MPN standard of care drugs tested on cell lines; type: cell-based; settings: for sensitive in % of JAK2 Cell line populations: JAK2 cell lines; for resistance in % of non JAK2 population: non JAK2 cell lines
Description: (§1) Efficacy comparison study of standard of care drugs in MPN Cell Lines and Patients is provided hereunder: […]

[2] = system: MPN patients (JAK2 and non JAK2 populations); assay: Efficacy of standard of care drugs on patient cohort; settings: for sensitive in % of JAK2 patient populations: JAK2 patients; for resistance in % of non JAK2 patient's population: non JAK2 patients
Description: as §1

[3] = cited from earlier work
[4] = system: patients with JAK2 aberration, Chromosome 8 / Chromosome 9 aberration; assay: Analysis of Ruxolitinib non-responder cases in JAK2 aberration segment (efficacy score, chromosome 8/9 genes)
Description: Next, screening was done for all patient's resistant to Ruxolitinib (JAKAFI®) but sensitive to the drug combination of CQ+M+S.

[5] = in vivo, cited from earlier work
[6] = in vivo; cited from earlier work
[7] = system: Jakafi resistant JAK2 V617F harboring BaF3 cell-line; settings: metformin 0.25 mM, 0.5 mM, 1 mM, 5 mM and 10 mM
Description: Relative growth of cells was assessed using MTT assay.
Viable cells % was assessed using MTT assay.
Viable cells % was assessed using MTT assay (FIG. 7a).

[8] = after meal, chloroquine 200 mg morning, metformin 1250 mg morning and evening, rosuvastatin 20 mg evening

| SMILES | sensitive in % of JAK2 Cell line populations [1] [%] | resistance in % of non JAK2 population [1] [%] | sensitive in % of JAK2 patient populations [2] [%] | resistance in % of non JAK2 patient's population [2] [%] | MTD (maximum tolerated dose) [5] [mg/day] | Headache, All Grades [6] [%] | further results |
| --- | --- | --- | --- | --- | --- | --- | --- |
| Nc1ncn([C@@H]2O[C@H](CO)[C@@H](O)[C@H]2O)c(=O)n1 [Azacytidine] | 50 | 50 | 34.16 | 74 |  |  |  |
| CCN(CC)CCCC(C)Nc1ccnc2cc(Cl)ccc12 (stereo not shown) [Chloroquine, chloroquine] |  |  |  |  | 600 |  | Peak Concentration at Dosage [3, 8]: 1.18 µM; t½ ([3]; in vivo): 20 to 60 days; Response ([4]; Gene MCL1, Chromosome 8, Trisomy 8): Inclusion; MTD (maximum tolerated dose) ([5]; listed as chloroquine): about 600 mg/day; grade ¾ toxicity [6]: rarely reported |
| Nc1ncn([C@H]2C[C@H](O)[C@@H](CO)O2)c(=O)n1 [Decitabine] | 50 | 50 | 34.16 | 74 |  |  |  |
| NC(=O)NO [Hydroxyurea] | 0 | 100 | 1 | 100 |  |  |  |
| Cc1ccc(NC(=O)c2ccc(CN3CCN(C)CC3)cc2)cc1Nc1nccc(-c2cccnc2)n1 [Imatinib] | 0 | 83.33 | 0.5 | 100 |  |  |  |
| CN(C)C(=N)N=C(N)N [Metformin, metformin] |  |  |  |  | 2500 | 5.7 | cell viability, viable cells % (MTT) [7]: steady decrease in cell viability; Peak Concentration at Dosage ([3]; in vivo): 5.8 µM; Response ([4]; Gene TGFBR1, Chromosome 9, Trisomy 9): Inclusion; MTD (maximum tolerated dose) ([5]; listed as metformin): about 2500 mg/day; Diarrhoea, All Grades [6]: 53%; Nausea, All Grades [6]: 25.5%; grade ¾ toxicity [6]: rarely reported |
| CC(C)c1nc(N(C)S(C)(=O)=O)nc(-c2ccc(F)cc2)c1/C=C/[C@@H](O)C[C@@H](O)CC(=O)O [Rosuvastatin, rosuvastatin] |  |  |  |  | 60 | 8.5 | Peak Concentration at Dosage [3, 8]: 0.09 µM; MTD (maximum tolerated dose) ([5]; listed as rosuvastatin): about 60 mg/day; Nausea, All Grades [6]: 6.3% |
| N#CC[C@H](C1CCCC1)n1cc(-c2ncnc3[nH]ccc23)cn1 [Ruxolitinib, ruxolitinib] | 75 | 83.33 | 81.18 | 87.81 |  | 14.8 | Anemia, All Grades [6]: 96.1%; Neutropenia, All Grades [6]: 18.7%; Thrombocytopenia, All Grades [6]: 69.7%; patients with Anemia of grade 3 or more [6]: 40-45% |
| O=C1CCC(N2C(=O)c3ccccc3C2=O)C(=O)N1 (stereo not shown) [Thalidomide] | 75 | 16.67 | 33.17 | 75.61 |  |  |  |
